Experimental findings from patent publication US20130072448A1, “Drug Combination Comprising A Glycolysis Inhibitor And A Tyrosine Kinase Inhibitor” (URIFER LTD., priority 2011, published 2013) are described below.

For one data set, the target named is T1, Fer (Homo sapiens, UniProt P16591).
T1 construct: endogenous in cells; host or cells: HCT116 colon carcinoma cells
Description: in-vivo Fer activity assay: auto-phosphorylation of Fer in HCT116 CC cells (IP, anti-phosphotyrosine western blot). The data set is classed as cell-based. The settings on record: serum deprived 24 h with 2 μM 0260, 20 mM H2O2 15 min before harvest. Here is the method:
HCT116 CC cells were deprived of serum for 24 h in the presence of 2 μM 0260 or 0.5% DMSO (the solvent). 15 min before harvest cells were treated with 20 mM H2O2— for activation and auto-phosphorylation of Fer. Protein lysates were prepared from cells: starved in the presence of DMSO and treated with H2O2 (1), starved in the presence of 0260 and treated with H2O2 (2), and from untreated cells (3). Fer was immuno-precipitated, resolved in SDS-PAGE and reacted with anti-phosphotyrosine (pY— upper panel) or anti-Fer antibodies (lower panel) in a western blot analysis.
After extraction of cellular proteins, a protein sample of 750-1000 μg was diluted 3fold with TGET buffer (20 mM Tris-HCl (Ph7.5), 1 mM EDTA, 0.1% Triton X100 and 10% Glycerol) with […] and protease inhibitors and incubated with the indicated antibody at a dilution of 1:100 overnight at 4° C. with shaking. At the end of the incubation, 25 μl Protein A/G suspension was added bound to agarose beads. The mixture was shaken for another 90 min at 4° C. The immune complex precipitate was obtained after centrifugation for 20 min at maximum speed and then washed three times in extraction buffer: twice with buffer TGET NaCl 150 mM and once with TGET NaCl 75 mM. The precipitate was suspended in 2× loading buffer. […]
(In general: A western blot detects proteins with antibodies after separation by electrophoresis.)

Data set [1] concerns human foreskin cells (FS11). Description: Dead cells fraction by FACS (PI), normal FS11 cells. It counts as cell-based. The settings on record: up to 1000 μM DG and 1 μM compound 0260, alone or in combinations. The method, then:
(§1) Florescence assisted cell sorting (FACS) was performed as described in Pasder O, et al. [Pasder O, et al. Oncogene 2006; 25(30):4194-206]. Cells were rinsed twice with cold PBS, and then harvested by treatment with trypsin. Suspended cells were washed twice in 10 ml cold PBS and centrifuged at 500 g for 5 min. In cell cycle analyses, the pellet was resuspended in 200 μl cold PBS and cells were stained in the dark with 200 μl propidium iodide (PI) solution (20 mM Tris, pH 8, 1 mM NaCl, 0.1% (v/v) NP-40, 1.4 mg/ml RNase A, 0.05 mg/ml PI) for 30 min at […]. In experiments to determine the fraction of dead cells in a population of cells, the detergent NP-40 was omitted. The total cellular DNA content was determined using a Becton Dickinson flow cytometer (FACSCalibur). The data were analyzed using Cell Quest Pro software (Becton Dickinson) and ModFit LT software.
(§2) To study the effect of various combinations of Fer and glycolysis inhibitors on cell cycle progression, various concentrations of 0260 and DG alone and in combination were tested in Hep3B liver cancer cells and on human foreskin cells (FS11) as a non-cancer controls.
A general note: In flow cytometry, cells or beads pass a laser one at a time.

The subject of the next data set is Hep3B liver cancer cells. The data set is described as follows: Dead cells fraction by FACS (PI), Hep3B. The data set is classed as cell-based, human. Conditions: compounds alone or in combination. The method, then: as §1, §2
The test system of data set [2] is HCT116 colon cancer cells. The data set is described as follows: Dead cells fraction by FACS (PI), HCT116. The data set is classed as cell-based. Conditions: compounds alone or in combination. The method, then: as §1

T1 sequence (P16591 whole entry): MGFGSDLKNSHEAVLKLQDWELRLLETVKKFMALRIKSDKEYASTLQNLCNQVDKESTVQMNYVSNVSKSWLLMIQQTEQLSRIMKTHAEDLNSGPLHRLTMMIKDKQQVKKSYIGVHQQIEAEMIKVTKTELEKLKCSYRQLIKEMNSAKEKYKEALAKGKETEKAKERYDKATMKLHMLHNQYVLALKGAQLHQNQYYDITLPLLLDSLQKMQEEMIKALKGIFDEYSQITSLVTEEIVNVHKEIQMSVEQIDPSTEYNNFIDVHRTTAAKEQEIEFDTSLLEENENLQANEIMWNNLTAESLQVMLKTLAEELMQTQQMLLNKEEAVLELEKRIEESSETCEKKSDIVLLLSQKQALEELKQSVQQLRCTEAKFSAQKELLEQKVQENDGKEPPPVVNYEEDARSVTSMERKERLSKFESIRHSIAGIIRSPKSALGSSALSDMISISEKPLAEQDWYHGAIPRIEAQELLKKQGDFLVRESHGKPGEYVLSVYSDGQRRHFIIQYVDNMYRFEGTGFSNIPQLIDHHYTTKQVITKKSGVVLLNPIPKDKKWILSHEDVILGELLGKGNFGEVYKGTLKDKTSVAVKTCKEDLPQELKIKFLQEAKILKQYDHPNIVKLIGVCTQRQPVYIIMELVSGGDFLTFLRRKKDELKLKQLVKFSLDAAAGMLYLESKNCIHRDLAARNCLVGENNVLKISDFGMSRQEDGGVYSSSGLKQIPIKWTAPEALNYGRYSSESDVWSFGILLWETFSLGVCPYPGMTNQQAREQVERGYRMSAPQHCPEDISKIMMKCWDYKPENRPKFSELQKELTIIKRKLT

Regarding `CC(C)c1ccc(-c2cn3nc(N4CCC(CN5CCN(C)CC5)CC4)sc3n2)cc1` [compound 0260, 6-(4-isopropyl-phenyl)-2-{4-[(4-methyl-piperazin-1-yl)methyl]piperidin-1-yl}imidazo[2,1-b][1,3,4]thiadiazole], the “inhibition of Fer auto-phosphorylation” value on Fer is listed as “efficient inhibition”. Also, the dead cells fraction entry in data set [1] is on record as “only minor effects”; with Hep3B liver cancer cells, “only minor effect”; in data set [2] it was “only minor effect”.

As for `O=CC[C@@H](O)[C@H](O)[C@H](O)CO` [DG, 2-deoxyglucose, reference compound], the results for the dead cells fraction entry (in data set [1]; in the data set with Hep3B liver cancer cells; in data set [2]) were “only minor effects”, “only minor effect” and “only minor effect”, respectively.
